From US11547702B2, “Use of amlexanox” (SHANGHAI MICROPORT MEDICAL (GROUP) CO., LTD., priority 2016, dated 2023)

Legend:
[1] = tested on: Human Aortic Smooth Muscle Cells (HASMCs); experiment: In vitro cell proliferation test (MTT colorimetry), smooth muscle cells; conditions: 72 hours, based on the control group, average of 6 tests
[2] = tested on: Human Aortic Endothelial Cells (HAECs); experiment: In vitro cell proliferation test (MTT colorimetry), endothelial cells; conditions: 72 hours, based on the control group, average of 6 tests
[3] = 1 μmol of each drug in culture medium
[4] = 6 μmol of each drug in culture medium
[5] = 10 μmol of each drug in culture medium

In the case of `CO[C@H]1C[C@@H]2CC[C@@H](C)[C@@](O)(O2)C(=O)C(=O)N2CCCC[C@H]2C(=O)O[C@H]([C@H](C)C[C@@H]2CC[C@@H](O)[C@H](OC)C2)CC(=O)[C@H](C)/C=C(\C)[C@@H](O)[C@@H](OC)C(=O)[C@H](C)C[C@H](C)/C=C/C=C/C=C/1C` [Rapamycin, rapamycin], the “Smooth muscle cell inhibition rate (%)” value [1, 3] is reported as 9.1%, the “Smooth muscle cell inhibition rate (%)” value [1, 4] is reported as 18.9% and the “Endothelial cell inhibition rate (%)” value [2, 3] is reported as 7.7%. For the same compound, the “Endothelial cell inhibition rate (%)” value [2, 4] was 16.0% and the “Endothelial cell inhibition rate (%)” value [2, 5] was 21.8%.

For `CC(C)c1ccc2oc3nc(N)c(C(=O)O)cc3c(=O)c2c1` [Amlexanox, 2-amimo-7-isopropyl-5-oxo-5H-[1]benzopyrano-[2,3,-b]pyridine-3-carboxylic acid], the “Smooth muscle cell inhibition rate (%)” value [1, 3] was 11.6%, the “Smooth muscle cell inhibition rate (%)” value [1, 4] was 19.0% and the “Smooth muscle cell inhibition rate (%)” value [1, 5] was 23.4%. For the same compound, the “Endothelial cell inhibition rate (%)” value [2, 3] was 0.9%, the “Endothelial cell inhibition rate (%)” value [2, 4] was 2.8% and the “Endothelial cell inhibition rate (%)” value [2, 5] was 3.5%.
